Consider 26 compounds from patent publication US10730850B2, “Pyridinylmethyl carbamimidoylcarbamate derivatives and their use as AOC3 inhibitors” (Boehringer Ingelheim International GmbH, priority 2016, dated 2020).

What is called IC50 is the concentration at which inhibition is half-maximal.

Series [1] can be described thus: In vivo clearance experiment (biliary clearance). The note with it: rat, bile collected 0-180 min. On the procedure: Bile flow is continuously collected from animal for 4 hours, including the 1 hour post-surgery recovery period. For short biliary excretion study, blood samples are taken at 0, 5 and 180 min and bile samples collection intervals are: 10 min before dosing and 0-180 min. All blood and bile samples are collected from 2 rats and are not pooled. Bile is kept at 4° C. during the collecting intervals and immediately frozen in dry ice after the collecting period is over.
As biliary clearance is expected to be impaired in patients with liver diseases (Clarke J. D. et. al J. Pharm. Exp. Ther. 348:452-458; Ferslew B. C. et al. Clin. Pharm. & Ther. Vol 97(4) XX), a reduced biliary clearance results in a better predictibitlity of the pharmacokinetics and assessment of safety margins in this patient population.

For series [2], the target named is AOC3 (Homo sapiens (Human), UniProt Q16853). The series is described as follows: MAO-Glo AOC3 assay (recombinant CHO cells overexpressing AOC3). Type of series: biochemical. The text has this: The MAO-Glo™ Assay (commercial available from PROMEGA, # V1402) provides a sensitive method for the measurement of monoamine oxidase (MAO) activity (Valley, M. P. et al., 2006, Anal. Biochem. 359: 238-246) from a variety of tissues, biofluids or recombinant expressed or purified enzymes. As substrate a derivate of the beetle luciferin ((4S)-4,5-dihydro-2-(6-hydroxybenzothiazolyl)-4-thiazole-carboxylic acid) is used, which is oxidized at a primary amine moiety. After a spontaneous elimination and a catalyzed esterase reaction, the turnover of the luciferine by the luciferase is recorded as a signal of AOC3 activity.
An aliquot of 3 μL of the compound dilution is added to a 384 well plate (Optiplate, PS, flat bottom, white, PERKIN ELMER, #6007290) with a final DMSO concentration of 6.6%. Recombinant CHO cells, overexpressing the human (1500 cells/well), mouse (1000 cells/well) or rat (500 cells/well) AOC3 enzyme are diluted in reaction buffer and added in a volume of 15 μL to the wells. After incubation for 20 minutes at 37° C., 2 μL of MAO substrate (dissolved in DMSO at 16 mM, adjusted to assay concentration in reaction buffer to a final assay concentration of 20 μM) is added and further incubated for 60 minutes at 37° C. The turnover of the substrate is determined by the addition of 20 μL of the detection-mix which was generated by the addition of reconstitution buffer with esterase (PROMEGA, # V1402) to the luciferine detection reagent (PROMEGA, # V1402). After an incubation period of 20 minutes, the luminescent signal is measured with Envision 2104 Multilabel Reader (PERKIN ELMER).
In the following table the activity expressed as IC50 (nM) of compounds according to the invention is presented wherein the IC50 values are determined in the MAO-Glo™ AOC3 assay as described hereinbefore. The term “Example” refers to the example numbers according to the following experimental section.

For series [3], the system named is hepatocytes. The series can be described thus: Metabolic stability assay in hepatocyte suspension. The series is classed as in vitro ADME. The note with it: 1 μM test compound. The method, then: The metabolic degradation of the test compound is assayed in a hepatocyte suspension. Hepatocytes (typically cryopreserved) are incubated in an appropriate buffer system (e.g. Dulbecco's modified eagle medium plus 3.5 μg glucagon/500 mL, 2.5 mg insulin/500 mL and 3.75 mg/500 mL hydrocortison) containing 5% species serum. Following a (typically) 30 min preincubation in an incubator (37° C., 10% CO2) 5 μl of test compound solution (80 μM; from 2 mM in DMSO stock solution diluted 1:25 with medium) are added into 395 μl hepatocyte suspension (cell density in the range 0.25-5 Mio cells/mL, typically 1 Mio cells/mL; final concentration of test compound 1 μM, final DMSO concentration 0.05%). The cells are incubated for six hours (incubator, orbital shaker) and samples (25 μl) are taken at 0, 0.5, 1, 2, 4 and 6 hours. Samples are transferred into acetonitrile and pelleted by centrifugation (5 min). The supernatant is transferred to a new 96-deepwell plate, evaporated under nitrogen and resuspended. Decline of parent compound is analyzed by HPLC-MS/MS
CLint is calculated as follows CL_INTRINSIC=Dose/AUC=(C0/CD)/(AUD+clast/k)×1000/60. C0: initial concentration in the incubation [μM], CD: cell density of vital cells [10e6 cells/mL], AUD: area under the data [μM×h], clast: concentration of last data point [μM], k: slope of the regression line for parent decline [h-1].
The calculated in vitro hepatic intrinsic clearance can be scaled up to the intrinsic in vivo hepatic Clearance and used to predict hepatic in vivo blood clearance (CL) by the use of a liver model (well stirred model). CL_INTRINSIC_INVIVO [ml/min/kg]=(CL_INTRINSIC [μL/min/10e6 cells]×hepatocellularity [10e6 cells/g liver]×liver factor [g/kg bodyweight])/1000 CL [ml/min/kg]=CL_INTRINSIC_INVIVO [ml/min/kg]×hepatic blood flow [ml/min/kg]/(CL_INTRINSIC_INVIVO [ml/min/kg]+hepatic blood flow [ml/min/kg])

Setting [4] is: comparative compounds of EP 2 695 881.
[5] abbreviates: Table 2, compounds of the present invention, read-out: IC50.
The mark [6] stands for this setting: Table 3, compounds of the present invention.
Where [7] appears, read: compounds of the present invention.

Like-named read-outs stand apart in the source and are kept apart here.

AOC3, sequence (Q16853 whole entry): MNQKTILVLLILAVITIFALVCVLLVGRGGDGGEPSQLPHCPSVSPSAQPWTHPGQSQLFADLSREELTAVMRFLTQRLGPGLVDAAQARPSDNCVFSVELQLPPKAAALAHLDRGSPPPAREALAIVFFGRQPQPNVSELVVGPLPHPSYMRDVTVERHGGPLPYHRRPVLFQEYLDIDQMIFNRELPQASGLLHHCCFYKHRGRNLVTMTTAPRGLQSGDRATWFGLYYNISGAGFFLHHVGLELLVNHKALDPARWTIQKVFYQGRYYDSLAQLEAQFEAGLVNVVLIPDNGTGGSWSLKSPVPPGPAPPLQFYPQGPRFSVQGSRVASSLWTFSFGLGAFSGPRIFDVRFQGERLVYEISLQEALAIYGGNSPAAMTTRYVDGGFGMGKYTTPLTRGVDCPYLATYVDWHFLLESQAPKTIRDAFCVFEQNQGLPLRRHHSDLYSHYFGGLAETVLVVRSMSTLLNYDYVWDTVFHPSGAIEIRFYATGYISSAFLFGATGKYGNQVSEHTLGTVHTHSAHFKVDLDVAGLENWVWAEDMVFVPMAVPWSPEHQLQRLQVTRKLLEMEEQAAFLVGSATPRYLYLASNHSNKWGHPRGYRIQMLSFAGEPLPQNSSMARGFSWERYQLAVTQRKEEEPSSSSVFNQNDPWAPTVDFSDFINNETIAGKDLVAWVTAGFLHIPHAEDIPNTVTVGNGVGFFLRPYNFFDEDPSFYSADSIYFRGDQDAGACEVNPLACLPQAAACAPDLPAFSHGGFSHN

Take `CC(=O)N1CCC(COc2ncc(-c3cccc(COC(=O)NC(=N)N)c3F)cn2)CC1` [11 (221), reference compound]: the “Cl (biliary clearance)” value in series [1] (setting [4]) is on record as 22.4%.

Turning to `N=C(N)NC(=O)OCc1ccnc(N2CCN(c3ccc(C(N)=O)cc3)CC2)c1F` [Example 1.084], the IC50 in series [2] (Table 1, read-out: AOC3 IC50) amounted to 3 nM; in series [2] (setting [5]) it was 2.8 nM. For the same compound, the QH in series [3] (setting [6]) is 23%; in series [3] (Table 4) it was 10%. Further, the “Cl (biliary clearance)” value in series [1] (setting [7]) turned out to be 2.2%.

Regarding `COc1ncc(N2CCN(c3nccc(COC(=O)NC(=N)N)c3F)CC2)cn1` [Example 1.072], the IC50 worked out at 4 nM in series [2] (Table 1, read-out: AOC3 IC50) and 4.1 nM in series [2] (setting [5]). The QH in series [3] (setting [6]) is listed as 3.7%; in series [3] (Table 4) it was 4%. The “Cl (biliary clearance)” value in series [1] (setting [7]) worked out at 1.2%.

In the case of `COc1cccc(C2=CCN(c3nccc(COC(=O)NC(=N)N)c3F)CC2)c1` [Example 1.058], the IC50 in series [2] (Table 1, read-out: AOC3 IC50) is 4 nM. The QH in series [3] (Table 4) was found to be 18%.

As to `CC(=O)N1CCC(C2CN(c3cccc(COC(=O)NC(=N)N)n3)C2)CC1` [Example 1.016], the IC50 in series [2] (Table 1, read-out: AOC3 IC50) is 10 nM. The QH in series [3] (Table 4) amounted to 6%.

Turning to `CC(=O)c1ccc(N2CCN(c3nccc(COC(=O)NC(=N)N)c3F)CC2)nc1` [Example 1.085], the IC50 in series [2] (Table 1, read-out: AOC3 IC50) came out at 4 nM. In series [3] (Table 4), this compound registered a QH of 85%.

As for `CC(=O)N1CCC(C2CN(c3nccc(COC(=O)NC(=N)N)c3F)C2)CC1` [Example 1.047], the IC50 in series [2] (Table 1, read-out: AOC3 IC50) worked out at 8 nM. The same compound displayed a QH in series [3] (Table 4) below 4%.

On to `COc1ccc(N2CCN(c3nccc(COC(=O)NC(=N)N)c3F)CC2)cc1` [Example 1.067], for which the IC50 worked out at 5 nM in series [2] (Table 1, read-out: AOC3 IC50) and 4.6 nM in series [2] (setting [5]). The results for the QH in series [3] (setting [6]) and in series [3] (Table 4) were 10% and 23%, respectively.

As for `N#Cc1cccc(C2CCN(c3nccc(COC(=O)NC(=N)N)c3F)CC2)c1` [Example 1.051], in series [2] (Table 1, read-out: AOC3 IC50), the IC50 amounted to 2 nM. This compound also showed a QH in series [3] (Table 4) of 20%.

As for `CN(C)C(=O)c1ccc(N2CCN(c3nccc(COC(=O)NC(=N)N)c3F)CC2)nc1` [Example 1.101], the IC50 in series [2] (Table 1, read-out: AOC3 IC50) worked out at 7 nM. In series [3] (Table 4), this compound returned a QH below 4%.

For `Cc1cccc(N2CCN(c3nccc(COC(=O)NC(=N)N)c3F)CC2)c1` [Example 1.031], the IC50 in series [2] (Table 1, read-out: AOC3 IC50) came to 9 nM. The QH in series [3] (Table 4) amounted to 23%.

With `COC(=O)N1CCC(C2CCN(c3nccc(COC(=O)NC(=N)N)c3F)CC2)CC1` [Example 1.095], the IC50 in series [2] (Table 1, read-out: AOC3 IC50) amounted to 3 nM. Moreover, in series [3] (Table 4), the QH is 15%.

As for `CN(C)C(=O)c1ccc(N2CCN(c3nccc(COC(=O)NC(=N)N)c3F)CC2)cc1` [Example 1.100], the IC50 in series [2] (Table 1, read-out: AOC3 IC50) was determined as 5 nM. In series [3] (Table 4), this compound returned a QH of 9%.

`N=C(N)NC(=O)OCc1ccnc(N2CCN(c3cccc(F)c3)CC2)c1F` [Example 1.044]: the IC50 in series [2] (Table 1, read-out: AOC3 IC50) stood at 9 nM. Moreover, the QH in series [3] (Table 4) was 56%.

In the case of `N=C(N)NC(=O)OCc1ccnc(N2CCC(c3ccncc3)CC2)c1F` [Example 1.010], the IC50 in series [2] (Table 1, read-out: AOC3 IC50) worked out at 3 nM. The QH in series [3] (Table 4) came out at 16%.

For `N=C(N)NC(=O)OCc1ccnc(N2CCC(N3Cc4ccccc4C3=O)CC2)c1F` [Example 1.089], the IC50 in series [2] (Table 1, read-out: AOC3 IC50) is 4 nM. Further, in series [3] (Table 4), the QH amounted to 8%.

As to `COc1cccc(N2CCN(c3nccc(COC(=O)NC(=N)N)c3F)CC2)c1` [Example 1.068], in series [2] (Table 1, read-out: AOC3 IC50), the IC50 was found to be 7 nM. In series [3] (Table 4), the QH was found to be 23%.

With `COc1ncc(N2CCN(c3cccc(COC(=O)NC(=N)N)n3)CC2)cn1` [Example 1.036], the IC50 in series [2] (Table 1, read-out: AOC3 IC50) is 7 nM. The compound also showed a QH in series [3] (Table 4) of 16%.

For the compound `Cc1cc(C)cc(N2CCN(c3nccc(COC(=O)NC(=N)N)c3F)CC2)c1` [Example 1.061], the IC50 in series [2] (Table 1, read-out: AOC3 IC50) was 8 nM. The compound further displayed a QH in series [3] (Table 4) of 13%.

In the case of `COc1cnc(C2=CCN(c3nccc(COC(=O)NC(=N)N)c3F)CC2)nc1` [Example 1.064], the IC50 in series [2] (Table 1, read-out: AOC3 IC50) was determined as 6 nM. The QH in series [3] (Table 4) came to 14%.

As for `CC(=O)N1CCC(C2CN(c3cccc(COC(=O)NC(=N)N)c3F)C2)CC1` [559 (293), reference compound], the “Cl (biliary clearance)” value in series [1] (setting [4]) is on record as 10.3%.

As for `N#Cc1ccc(N2CCN(c3nccc(COC(=O)NC(=N)N)n3)CC2)cc1` [Example 1.027], in series [2] (Table 1, read-out: AOC3 IC50), the IC50 came out at 2 nM. The same compound displayed a QH in series [3] (Table 4) of 9%.

In the case of `COc1ncc(N2CCN(c3cccc(COC(=O)NC(=N)N)c3F)CC2)cn1` [126 (235), reference compound], in series [2] (Table 2, comparative compounds of EP 2 695 881, read-out: IC50), the 50% inhibitory concentration (IC50) was 3.9 nM. Further, in series [3] (Table 3, comparative compounds of EP 2 695 881), the QH is recorded as 11%.

With `N=C(N)NC(=O)OCc1ccnc(N2CC=C(c3ccc(F)cc3)CC2)c1F` [Example 1.037], in series [2] (Table 1, read-out: AOC3 IC50), the IC50 came to 9 nM. The same compound registered a QH in series [3] (Table 4) of 20%.

As to `N=C(N)NC(=O)OCc1ccnc(N2CCC(c3ccc(F)cc3)CC2)c1F` [Example 1.041], the IC50 in series [2] (Table 1, read-out: AOC3 IC50) was determined as 9 nM. This compound also had a QH in series [3] (Table 4) of 12%.

Turning to `N=C(N)NC(=O)OCc1ccnc(N2CCN(c3ccc(Cl)cc3)CC2)c1F` [Example 1.077], the IC50 in series [2] (Table 1, read-out: AOC3 IC50) is 7 nM. In series [3] (Table 4), this compound displayed a QH of 30%.
